Drawing on patent US8025894B2, “Innovative formulation” (Endura S.p.A., priority 2005, dated 2011), this text covers LC50% a.i. and LC99% a.i. for 1 molecule.

SMILES strings stand for the structures.

In this series the test system is Bemisia tabaci (whitefly) biotype B. Nature of the series: Mortality assay (leaf dip bioassay). The format is in vivo. Particulars: adult insects on treated cotton leaf discs, mortality evaluated at 24 and 48 hours. As for the experimental part: The “leaf dip bioassay” used for testing the activity of insecticides against Bemisia tabaci (whitefly) biotype B, was similar to that described by Cahill, M et al, Bull. Entomol. Res. 85, 181-187, 1995.
Cotton plants (Gossypium hirsutum L.) were grown without any exposure to the insecticides. The leaves were cut up into disc shapes and immersed in an aqueous solution of insecticide containing 0.01% of Agral then left to dry at 25° C.
Control leaves were immersed in Agral and distilled water only.
About 20 adult insects were placed onto the small discs of treated cotton leaf.
The insects were allowed to feed and maximum mortality was evaluated at 24 and 48 hours.
LC50% a.i. (=active ingredient) and LC99% a.i. indicate the quantity of insecticide able to achieve mortality for 50% and 99% of the insects tested.
As a comparison, the data obtained with commercial bifenthrin in the absence of the synergistic compound (PBO) and the data obtained with commercial bifenthrin in a mixture with the same quantity of PBO present in the formulation product of example 1 are given in the same table.

`Cc1c(COC(=O)[C@@H]2[C@H](/C=C(\Cl)C(F)(F)F)C2(C)C)cccc1-c1ccccc1` (racemic) [Bifenthrin]: under “quantity of insecticide giving 50% mortality”, the LC50% a.i. came to 0.01 ppm. Also, where the note is “quantity of insecticide giving 99% mortality”, the LC99% a.i. came out at 257 ppm.
